This test deals with human LPA1 receptor (Homo sapiens (Human), UniProt Q92633). Put plainly: Beta-arrestin recruitment assay to determine IC50 values for human LPAR1. Format: cell-based. To be noted: antagonist mode, Tango EDG2-bla U2OS cells, LPA 18:1 500 nM final. A digest of the protocol:
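Antagonist IC50 = concentration giving 50% inhibition of maximal LPA response. Read-out is beta-lactamase reporter activity after arrestin-protease recruitment in U2OS cells bearing LPA1-TEV-Gal4-VP16 construct; cells pre-incubated 20 h, 37 °C, 5% CO2.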

This note sets out measurements from patent publication US12344597B2, “Alkoxy-substituted pyridinyl derivatives as LPA1 receptor antagonists and their use in the treatment of fibrosis” (IDORSIA PHARMACEUTICALS LTD, priority 2018, dated 2025).

Structures are written as SMILES. pIC50: −log10 of the molar value.

human LPA1 receptor, sequence (Q92633 whole entry, the tested form may be a part): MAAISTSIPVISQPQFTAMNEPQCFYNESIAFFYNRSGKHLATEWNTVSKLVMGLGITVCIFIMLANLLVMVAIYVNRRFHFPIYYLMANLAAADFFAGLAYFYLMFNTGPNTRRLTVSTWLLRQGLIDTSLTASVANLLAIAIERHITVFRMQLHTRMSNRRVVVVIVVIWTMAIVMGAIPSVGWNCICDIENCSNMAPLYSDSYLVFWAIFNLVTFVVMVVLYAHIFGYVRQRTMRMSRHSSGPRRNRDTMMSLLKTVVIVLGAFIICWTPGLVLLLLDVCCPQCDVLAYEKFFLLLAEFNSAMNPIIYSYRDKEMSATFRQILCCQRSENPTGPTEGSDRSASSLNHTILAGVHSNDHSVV

One may read the pIC50 as −log10 of the IC50, conventionally taken in molar units. A higher pIC50 goes with a low IC50. For the compound `Cc1ccc(NC(=O)C2(c3ccccc3C(C)C)CN(C(=O)C[C@@](C)(O)C(=O)O)C2)c(OC(F)F)n1` [Ex 12-116, (R)-4-(3-((2-(difluoromethoxy)-6-methylpyridin-3-yl)carbamoyl)-3-(2-isopropylphenyl)azetidin-1-yl)-2-hydroxy-2-methyl-4-oxobutanoic acid], the pIC50 is 7.20.
`Cc1ccc(NC(=O)C2(c3ccccc3C(C)C)CN(C(=O)C[C@](C)(O)C(=O)O)C2)c(OC(F)F)n1` [Ex 12-117, (S)-4-(3-((2-(difluoromethoxy)-6-methylpyridin-3-yl)carbamoyl)-3-(2-isopropylphenyl)azetidin-1-yl)-2-hydroxy-2-methyl-4-oxobutanoic acid] showed a pIC50 of 8.15. This pIC50 is 0.95 log units higher than that of the compound before.
The result for `Cc1ccc(NC(=O)C2(c3ccccc3C(C)C)CN(C(=O)[C@H](O)[C@@H](O)C(=O)O)C2)c(OC(F)F)n1` [Ex 12-118, (2R,3R)-4-(3-((2-(difluoromethoxy)-6-methylpyridin-3-yl)carbamoyl)-3-(2-isopropylphenyl)azetidin-1-yl)-2,3-dihydroxy-4-oxobutanoic acid] reads 7.52; that for `Cc1ccc(NC(=O)C2(c3ccccc3C(C)C)CN(C(=O)CCC(=O)NS(C)(=O)=O)C2)c(OC(F)F)n1` [Ex 12-119, N-(2-(difluoromethoxy)-6-methylpyridin-3-yl)-3-(2-isopropylphenyl)-1-(4-(methylsulfonamido)-4-oxobutanoyl)azetidine-3-carboxamide], 7.46.
The result for `Cc1ccc(NC(=O)C2(c3ccccc3C(C)C)CN(C(=O)CCC(O)C(F)(F)F)C2)c(OC(F)F)n1` (stereo not shown) [Ex 12-120, N-(2-(difluoromethoxy)-6-methylpyridin-3-yl)-3-(2-isopropylphenyl)-1-(5,5,5-trifluoro-4-hydroxypentanoyl)azetidine-3-carboxamide] reads 7.96.
The result for `Cc1ccc(NC(=O)C2(c3ccccc3C(C)C)CN(C(=O)CCOCCOCC(=O)O)C2)c(OC(F)F)n1` [Ex 12-121, 2-(2-(3-(3-((2-(difluoromethoxy)-6-methylpyridin-3-yl)carbamoyl)-3-(2-isopropylphenyl)azetidin-1-yl)-3-oxopropoxy)ethoxy)acetic acid] reads 6.51; that for `Cc1ccc(NC(=O)C2(c3ccccc3C(C)C)CN(C(=O)CC3(C(=O)O)CCOCC3)C2)c(OC(F)F)n1` [Ex 12-122, 4-(2-(3-((2-(difluoromethoxy)-6-methylpyridin-3-yl)carbamoyl)-3-(2-isopropylphenyl)azetidin-1-yl)-2-oxoethyl)tetrahydro-2H-pyran-4-carboxylic acid], 7.82; that for `Cc1ccc(NC(=O)C2(c3ccccc3C(C)C)CN(C(=O)CC3(C(=O)O)CCOC3)C2)c(OC(F)F)n1` (stereo not shown) [Ex 12-123, 3-(2-(3-((2-(difluoromethoxy)-6-methylpyridin-3-yl)carbamoyl)-3-(2-isopropylphenyl)azetidin-1-yl)-2-oxoethyl)tetrahydrofuran-3-carboxylic acid], 7.39.
For the compound `Cc1ccc(NC(=O)C2(c3ccccc3C(C)C)CN(C(=O)CC3(C(=O)O)CCN(C)CC3)C2)c(OC(F)F)n1` [Ex 12-124, 4-(2-(3-((2-(difluoromethoxy)-6-methylpyridin-3-yl)carbamoyl)-3-(2-isopropylphenyl)azetidin-1-yl)-2-oxoethyl)-1-methylpiperidine-4-carboxylic acid], the negative-log IC50 (pIC50) was 7.25.
The result for `CONC(=O)CC(=O)N1CC(C(=O)Nc2ccc(C)nc2OC(F)F)(c2ccccc2C(C)C)C1` [Ex 12-125, N-(2-(difluoromethoxy)-6-methylpyridin-3-yl)-3-(2-isopropylphenyl)-1-(3-(methoxyamino)-3-oxopropanoyl)azetidine-3-carboxamide] reads 7.46; that for `Cc1ccc(NC(=O)C2(c3ccccc3C(C)C)CN(C(=O)CN3CC(=O)NC3=O)C2)c(OC(F)F)n1` [Ex 12-126, N-(2-(difluoromethoxy)-6-methylpyridin-3-yl)-1-(2-(2,4-dioxoimidazolidin-1-yl)acetyl)-3-(2-isopropylphenyl)azetidine-3-carboxamide], 7.34; that for `Cc1ccc(NC(=O)C2(c3ccccc3C(C)C)CN(C(=O)CNS(N)(=O)=O)C2)c(OC(F)F)n1` [Ex 12-128, N-(2-(difluoromethoxy)-6-methylpyridin-3-yl)-3-(2-isopropylphenyl)-1-(sulfamoylglycyl)azetidine-3-carboxamide], 8.00.
The result for `Cc1ccc(NC(=O)C2(c3ccccc3C(C)C)CN(C(=O)C3CS(=O)(=O)C3)C2)c(OC(F)F)n1` [Ex 12-129, N-(2-(difluoromethoxy)-6-methylpyridin-3-yl)-1-(1,1-dioxidothietane-3-carbonyl)-3-(2-isopropylphenyl)azetidine-3-carboxamide] reads 7.24; that for `CC(=O)N(CCC(=O)N1CC(C(=O)Nc2ccc(C)nc2OC(F)F)(c2ccccc2C(C)C)C1)OCc1ccccc1` [Ex 12-131, 1-(3-(N-(benzyloxy)acetamido)propanoyl)-N-(2-(difluoromethoxy)-6-methylpyridin-3-yl)-3-(2-isopropylphenyl)azetidine-3-carboxamide], 6.19; that for `CC(=O)N(O)CCC(=O)N1CC(C(=O)Nc2ccc(C)nc2OC(F)F)(c2ccccc2C(C)C)C1` [Ex 12-132, N-(2-(difluoromethoxy)-6-methylpyridin-3-yl)-1-(3-(N-hydroxyacetamido)propanoyl)-3-(2-isopropylphenyl)azetidine-3-carboxamide], 7.46.
The result for `Cc1ccc(NC(=O)C2(c3ccccc3C(C)C)CN(C(=O)CNOCc3ccccc3)C2)c(OC(F)F)n1` [Ex 12-134, 1-((benzyloxy)glycyl)-N-(2-(difluoromethoxy)-6-methylpyridin-3-yl)-3-(2-isopropylphenyl)azetidine-3-carboxamide] reads 8.22.
As for `CC(=O)N(CC(=O)N1CC(C(=O)Nc2ccc(C)nc2OC(F)F)(c2ccccc2C(C)C)C1)OCc1ccccc1` [Ex 12-135, 1-(N-acetyl-N-(benzyloxy)glycyl)-N-(2-(difluoromethoxy)-6-methylpyridin-3-yl)-3-(2-isopropylphenyl)azetidine-3-carboxamide], the pIC50 was 8.10.
`CC(=O)N(O)CC(=O)N1CC(C(=O)Nc2ccc(C)nc2OC(F)F)(c2ccccc2C(C)C)C1` [Ex 12-136, 1-(N-acetyl-N-hydroxyglycyl)-N-(2-(difluoromethoxy)-6-methylpyridin-3-yl)-3-(2-isopropylphenyl)azetidine-3-carboxamide] gave a pIC50 of 8.05. The pIC50 values of the last two compounds are within 0.2 log units of each other.
In the case of `CC(=O)N1CCC(CC(=O)N2CC(C(=O)Nc3ccc(C)nc3OC(F)F)(c3ccccc3C(C)C)C2)CC1` [Ex 12-137, 1-(2-(1-acetylpiperidin-4-yl)acetyl)-N-(2-(difluoromethoxy)-6-methylpyridin-3-yl)-3-(2-isopropylphenyl)azetidine-3-carboxamide], the pIC50 is 6.65.
In the case of `Cc1ccc(NC(=O)C2(c3ccccc3C(C)C)CN(C(=O)CC3CCNCC3)C2)c(OC(F)F)n1` [Ex 12-138, N-(2-(difluoromethoxy)-6-methylpyridin-3-yl)-3-(2-isopropylphenyl)-1-(2-(piperidin-4-yl)acetyl)azetidine-3-carboxamide] it was 7.37; in that of `COCCN1CCC(CC(=O)N2CC(C(=O)Nc3ccc(C)nc3OC(F)F)(c3ccccc3C(C)C)C2)CC1` [Ex 12-139, N-(2-(difluoromethoxy)-6-methylpyridin-3-yl)-3-(2-isopropylphenyl)-1-(2-(1-(2-methoxyethyl)piperidin-4-yl)acetyl)azetidine-3-carboxamide], 6.78; in that of `Cc1ccc(NC(=O)C2(c3ccccc3C(C)C)CN(C(=O)CC3CCN(CCF)CC3)C2)c(OC(F)F)n1` [Ex 12-141, N-(2-(difluoromethoxy)-6-methylpyridin-3-yl)-1-(2-(1-(2-fluoroethyl)piperidin-4-yl)acetyl)-3-(2-isopropylphenyl)azetidine-3-carboxamide], 6.69.
The result for `Cc1ccc(NC(=O)C2(c3ccccc3C(C)C)CN(C(=O)CN(C)CC(=O)O)C2)c(OC(F)F)n1` [Ex 12-142, N-(2-(3-((2-(difluoromethoxy)-6-methylpyridin-3-yl)carbamoyl)-3-(2-isopropylphenyl)azetidin-1-yl)-2-oxoethyl)-N-methylglycine] reads 7.74.
In the case of `Cc1ccc(NC(=O)C2(c3ccccc3C(C)C)CN(S(=O)(=O)CC(=O)O)C2)c(OC(F)F)n1` [Ex 13-1, 2-((3-((2-(difluoromethoxy)-6-methylpyridin-3-yl)carbamoyl)-3-(2-isopropylphenyl)azetidin-1-yl)sulfonyl)acetic acid] it was 8.15; in that of `COC(=O)CS(=O)(=O)N1CCC(C(=O)Nc2ccc(C)nc2OC(F)F)(c2ccccc2C(C)C)CC1` [Ex 13-2, methyl 2-((4-((2-(difluoromethoxy)-6-methylpyridin-3-yl)carbamoyl)-4-(2-isopropylphenyl)piperidin-1-yl)sulfonyl)acetate], 8.15; in that of `Cc1ccc(NC(=O)C2(c3ccccc3C(C)C)CCN(S(=O)(=O)CC(=O)O)CC2)c(OC(F)F)n1` [Ex 13-3, 2-((4-((2-(difluoromethoxy)-6-methylpyridin-3-yl)carbamoyl)-4-(2-isopropylphenyl)piperidin-1-yl)sulfonyl)acetic acid], 7.85.
`Cc1ccc(NC(=O)C2(c3ccccc3C(C)C)CN(S(=O)(=O)CCC(=O)OCc3ccccc3)C2)c(OC(F)F)n1` [Ex 13-4, Benzyl 3-((3-((2-(difluoromethoxy)-6-methylpyridin-3-yl)carbamoyl)-3-(2-isopropylphenyl)azetidin-1-yl)sulfonyl)propanoate] gave a pIC50 of 8.00. The pIC50 values of the last two compounds are within 0.2 log units of each other.
The result for `Cc1ccc(NC(=O)C2(c3ccccc3C(C)C)CN(S(=O)(=O)CCC(=O)O)C2)c(OC(F)F)n1` [Ex 13-5, 3-((3-((2-(difluoromethoxy)-6-methylpyridin-3-yl)carbamoyl)-3-(2-isopropylphenyl)azetidin-1-yl)sulfonyl)propanoic acid] reads 8.40.
